Assay results as given in patent EP0574185B1, “PGE1 analogs” (NEWPHARMA INTERNATIONAL CORPORATION, priority 1992, dated 1993).
Read-outs that look alike come from different tables or passages of the source.

Assays:
Beagle dogs = assay: Volume and acidity of histamine stimulated gastric secretion in dogs (gastric fistula); assay type: in vivo
Description: Healthy adult Beagle dogs weighing 10 kg to 13 kg were used.
The basal response of each dog to histamine, as represented by volume of gastric secretion and acid concentration, was carried out six times. For this purpose the dogs were placed in a Pavlov support and plastic bottles were connected to a Thomas type gastric fistula after cleaning it when necessary.
Saline i.v. infusion was started by means of a Butterfly G 21 (Abbott) needle connected to a 500 ml bottle of sterile pyrogen free isotonic saline solution through an inert plastic cannula. The solution dripping was adjusted to 1 ml/min.
The volume of gastric secretion obtained from fifteen minutes collection periods, expressed as ml/15 min, was determined. Aliquots of 5 ml were kept in the freezer to perform acid titration on the next day. The first three collection periods were considered as the actual basal gastric secretion for each dog in the absence of any drug. Then the bottle of saline was changed for a solution of histamine. 2HCl at a concentration of […] in saline. The dripping was adjusted to 20 drops per minute (984 µg histamine/hour) After the plateau of augmented gastric secretion was reached, B-407 was administered.
Acid concentration, expressed as mEq H+/l was determined by titration with sodium hydroxide.

Swiss mice = assay: Exploratory activity in mice (open field); assay type: in vivo; conditions: i.p., control 88 ± 8, n=10
Description: The effect of B-407 on the exploratory activity was evaluated in Swiss mice of 30 g to 40 g in an open-field of 40 cm x 40 cm x 25 cm divided in 9 quadrants. One mouse at a time was placed into the open field to assess its exploratory activity by counting the number of quadrants crossed in 4 consecutive periods of 3 minutes each.
The working protocol consisted of two experiments with 3 groups of 10 animals each. In both experiments, each group of mice were pretreated with B-407, 0 µg/kg, 30 µg/kg and 100 µg/kg five min prior to the test. In one experiment, the animals were treated, p.o., with a combination of the antispasmodics homatropine methylbromide (5 mg/kg) and papaverine (5 mg/kg) administered 10 min prior to B-407. In the other experiment, this treatment was replaced by saline solution. The two experiments were carried out at the same time.
The results were expressed as the average ± standard error of each group and the statistical significance of the differences were evaluated by means of the Student's-t-test.

[1] = test system: isolated uterus of estrogenized rats; assay: Effect on isolated uterus of estrogenized rats (non-cumulative concentration-response curves); parameters: species or system Wistar rats; conditions: for Area (g of tension/2 min): average
Description: Concentration-response curves were carried out on isolated uterus of estrogenized rats. Female Wistar rats weighing 250g to 300g were employed. The animals were pretreated with 0.1 mg/kg of estradiol, subcutaneously, 24 h before the experiment. The whole uterus was dissected and excised and a portion of 1 cm of one horn was incubated in a 10 ml organ bath, at 30°C, bubbled with a mixture of 95 % O2 plus 5 % CO2. The nutrient solution was De Jalon solution described in the International Pharmacopea II^nd Ed. and containing 4x10^-7 M sodium diclofenac. The organ was left to stabilize in the solution for one hour. No spontaneous contractions were detected under these experimental conditions. To carry out the concentration-response curves, volumes of solutions of either natural prostaglandins or B-407 were added in order to obtain concentrations in the organ bath between 10^-10 M and 3x10^-6 M. After 2 minutes, the organ was washed three times during a 15 minutes time period before adding the next test solution. In this way the concentration-response curves obtained were not cumulative ["The rat uterus preparation" in "Pharmacological Experiments on Isolated Preparations". E. and S. Livingstone Ltd. Edinburgh and London (1968), p. 92].
Recording of the contractions of the isolated uterus were on a Berger polygraph with a FT03C transducer. The frequency and magnitude of the responses were globally evaluated by calculating the total area recorded at fixed time periods as will be further explained.
The frequency and magnitude of the responses were globally evaluated by calculating the total area recorded at a fixed time period as will be further explained. The areas under the curve of the recording paper, over 15 minutes periods, were cut and weighed both in the concentration-response curves and in the potentiating experiments.
The calibration was made by weighing a piece of paper which corresponded to a tension of 1 g at the working sensitivity along 2 minutes. Therefore, a relationship of area expressed in g/2 min was obtained and then the weights of the areas of the responses were transformed to unities of area. The results were expressed as the mean ± the standard error of the areas obtained. The statistical evaluation of the differences was carried out either by ANOVA or by Student's-t-test, as appropriate.

Swiss male mice = assay: Motor activity in mice (rota-rod); conditions: 100 µg/kg, i.p., 15 min prior to the test; vehicle 0/10
[2] = Canis lupus familiaris, iv, read-out: VOLUME % Inhib.

SMILES: CCCCC(C)(O)C/C=C/[C@H]1[C@H](O)CC(=O)[C@@H]1CCCC/C=C/C(=O)OC (mixture of isomers) [B-407, trans-Δ^2-15-deoxy-16-hydroxy-16-methyl PGE1 methyl ester]
- inhibition at 0.003 mg/kg (Beagle dogs; Canis lupus familiaris, iv, read-out: ACIDITY % Inhib): 59.7%
- inhibition at 0.001 mg/kg (Beagle dogs; [2]): 15.2%
- inhibition at 0.003 mg/kg (Beagle dogs; [2]): 93.7%
- ACIDITY % Inhib (Beagle dogs; i.g. 10 µg/kg): 42,5%
- VOLUME % Inhib. (Beagle dogs; i.g. 10 µg/kg): 24,3%
- VOLUME Max.eff. B-407 (Beagle dogs; i.g. 10 µg/kg, histamine plateau 42,0±3,6): 31,8±6,2 ml/15min
- ACIDITY Max.Eff. B-407 (Beagle dogs; i.g. 10 µg/kg, histamine plateau 122,4±9,7): 70,4±11,8 mEq.H^+/l
- ACIDITY % Inhib (Beagle dogs; i.g. 30 µg/kg): 31,8%
- VOLUME % Inhib. (Beagle dogs; i.g. 30 µg/kg): 36,3%
- VOLUME Max.eff. B-407 (Beagle dogs; i.g. 30 µg/kg, histamine plateau 38,3±2,6): 24,4±3,1 ml/15min
- ACIDITY Max.Eff. B-407 (Beagle dogs; i.g. 30 µg/kg, histamine plateau 143,4±3,2): 97,8±13,2 mEq.H^+/l
- VOLUME Max.eff. B-407 (Beagle dogs; i.v. 1 µg/kg, histamine plateau 39,5±3,4): 33,5±3,6 ml/15min
- VOLUME Max.eff. B-407 (Beagle dogs; i.v. 3 µg/kg, histamine plateau 43,2±4,6): 2,7±1,3 ml/15min
- ACIDITY Max.Eff. B-407 (Beagle dogs; i.v. 3 µg/kg, histamine plateau 145,3±3,0): 58,5±16,0 mEq.H^+/l
- VOLUME % Inhib. (Beagle dogs; i.vag 10 µg/kg (n=3)): 100,0%
- VOLUME Max.eff. B-407 (Beagle dogs; i.vag 10 µg/kg (n=3), histamine plateau 43,0±2,0): 0,0 ml/15min
- ACIDITY % Inhib (Beagle dogs; i.vag 30 µg/kg (n=2)): 67,3%
- VOLUME % Inhib. (Beagle dogs; i.vag 30 µg/kg (n=2)): 93,8%
- VOLUME Max.eff. B-407 (Beagle dogs; i.vag 30 µg/kg (n=2), histamine plateau 38,5±8,5): 2,4±1,7 ml/15min
- ACIDITY Max.Eff. B-407 (Beagle dogs; i.vag 30 µg/kg (n=2), histamine plateau 118,9±4,3): 38,9±19,9 mEq.H^+/l
- ACIDITY % Inhib (Beagle dogs; i.vag. 1 µg/kg): 24,4%
- VOLUME % Inhib. (Beagle dogs; i.vag. 1 µg/kg): 30,5%
- VOLUME Max.eff. B-407 (Beagle dogs; i.vag. 1 µg/kg, histamine plateau 50,8±2,4): 35,3±5,3 ml/15min
- ACIDITY Max.Eff. B-407 (Beagle dogs; i.vag. 1 µg/kg, histamine plateau 134,2±6,4): 101,4±13,3 mEq.H^+/l
- ACIDITY % Inhib (Beagle dogs; i.vag. 3 µg/kg): 71,5%
- VOLUME % Inhib. (Beagle dogs; i.vag. 3 µg/kg): 98,4%
- VOLUME Max.eff. B-407 (Beagle dogs; i.vag. 3 µg/kg, histamine plateau 49,1±2,5): 0,8±0,4 ml/15min
- ACIDITY Max.Eff. B-407 (Beagle dogs; i.vag. 3 µg/kg, histamine plateau 132,6±8,7): 37,8±12,7 mEq.H^+/l
- N° Quadrants/12 min (Swiss mice; 30 µg/kg): 87 ± 8
- N° Quadrants/12 min (Swiss mice; 100 µg/kg, p < 0,05): 48 ± 8
- Area (g of tension/2 min) ([1]; 1x10^-6 M, n=6): 1,13 g of tension/ 2 min
- Area (g of tension/2 min) ([1]; 1x10^-7 M, n=6): 0,31 g of tension/ 2 min
- Area (g of tension/2 min) ([1]; 1x10^-8 M, n=6): 0,20 g of tension/ 2 min
- Area (g of tension/2 min) ([1]; 1x10^-9 M, n=6): 0,12 g of tension/ 2 min
- Area (g of tension/2 min) ([1]; 1x10^-10 M, n=6): 0,14 g of tension/ 2 min
- Area (g of tension/2 min) ([1]; 3x10^-6 M, n=5): 0,67 g of tension/ 2 min
- times less potent than PGE1 on rat uterine contractility in vitro ([1]; PGE1 results are not shown): about 4 times
- Fraction (animals fallen before 300 sec/total number of animals) (Swiss male mice): 1/10
